These results are taken from US20180296503A1 (priority 2014, published 2018).

Broadly, the Ki is the dissociation constant of the complex between target and ligand, obtained from inhibition or displacement.

Series [1] relates to rd10^+/+ mice. Nature of the series: Scotopic, photopic and low background photopic electroretinograms (ERGs) in rd10+/+ mice given drug in drinking water. Format: in vivo. Particulars: for mean peak scotopic ERG b-wave amplitude compared with controls: vs controls. How it is done: Scotopic and photopic electroretinograms (ERGs) were recorded at P35. Scotopic, photopic and low background photopic ERGs were recorded at P50.

Series [2] has as its system rd10^+/+ mice. As to the kind of experiment: Cone density in PNA-stained retinal flat mounts of rd10+/+ mice at P50. Format: in vivo. Particulars: for cone cell density compared to NAC-treated mice: P50, four quadrants.
The target of series [3] is glutamate cysteine ligase (GCL, EC 6.3.2.2). Conditions: nonallosteric competitive inhibition of GCL; cited from earlier work.
The conditions of series [4]: humans; oral dose of 600 mg; cited from earlier work.
The conditions of series [5]: oral formulations; cited from earlier work.
Setting [6] is: same oral dose or substantially lower dose than NAC, rd10+/+ mice.

For `CC(=O)N[C@@H](CS)C(N)=O`, the “protecting retinal function (FIGS. 1A to 1E)” value in series [1] (7 mg/ml NACA vs 7 mg/ml NAC) is “better effects”. In addition, in series [1] (7 mg/ml NACA vs 20 mg/ml NAC), the “protecting retinal function (FIGS. 3A to 3E)” value was “better effects”. For the same molecule, the “mean peak scotopic ERG b-wave amplitude compared with 20 mg/ml NAC” value in series [1] (P35, 7 mg/ml NACA vs 20 mg/ml NAC) is “similar”. For the same molecule, the “mean peak photopic b-wave amplitude, higher than in NAC-treated mice” value in series [1] (P35, 7 mg/ml NACA vs 20 mg/ml NAC, p=0.024) is listed as 41%. For the same molecule, the “mean scotopic b-wave amplitudes compared with NAC-treated mice” value in series [1] (P50, 7 mg/ml NACA vs 20 mg/ml NAC, at 10 of 11 stimulus intensities) is “significantly greater”. In addition, the “mean photopic ERG b-wave amplitude, higher than in NAC-treated mice” value in series [1] (P50, 7 mg/ml NACA vs 20 mg/ml NAC, at all 3 stimulus intensities, p=0.001) was 50%. Further, the “mean peak scotopic ERG b-wave amplitude compared with controls” value in series [1] (P50, 7 mg/ml NACA) was “sustained higher amplitudes”. In addition, the “preservation of cone cell function compared with NAC” value in series [1] (setting [6]) is given as “significantly greater preservation”. The “protecting cone cell survival (FIGS. 2A to 2M)” value in series [2] (7 mg/ml NACA vs 7 mg/ml NAC) is “better effects”. In series [2] (7 mg/ml NACA vs 20 mg/ml NAC), the “protecting cone cell survival (FIGS. 4A to 4M)” value is on record as “better effect” and the “cone cell density compared to NAC-treated mice” value is recorded as “significantly greater in 2 of 4 quadrants”. Also, the “cone cell density compared to NAC-treated mice” value in series [2] (7 mg/ml NACA vs 7 mg/ml NAC, p<0.0001 by ANOVA with Dunnett's correction) is recorded as “significantly greater in 3 of 4 quadrants”. In addition, in series [2] (setting [6]), the “preservation of cone survival compared with NAC” value is “significantly greater preservation”.
Turning to `N[C@@H](CCC(=O)N[C@@H](CS)C(=O)NCC(=O)O)C(=O)O` [GSH, c-L-glutamyl-L-cysteinyl-glycine], the Ki in series [3] was 2.3 mM.
As to `CC(=O)N[C@@H](CS)C(=O)O` [NAC, N-acetyl-L-cysteine], the “mean peak scotopic ERG b-wave amplitude compared with controls” value in series [1] (P50, 20 mg/ml NAC) is given as “sustained higher amplitudes”. In series [4], the “time after administration at which no NAC is detectable” value was 10 to 12 h. Further, in series [5], the systemic bioavailability is reported as < 10%.
